According to PubChem BioAssay (NCI):
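Compound exposure: 48 hours, 5 concentrations, 96-well plates. The concentration for 50% growth inhibition is given as GI50. The concentration for full growth arrest is given as TGI.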

Key:
Experiment in all cases: DTP human tumour cell line panel, 48 h
SNB-19 CNS = tested on: SNB-19 CNS
RPMI-8226 leukemia = tested on: RPMI-8226 leukemia
MALME-3M melanoma = tested on: MALME-3M melanoma
SF-295 CNS = tested on: SF-295 CNS
SK-MEL-28 melanoma = tested on: SK-MEL-28 melanoma
NCI/ADR-RES ovarian = tested on: NCI/ADR-RES ovarian
HT29 colon = tested on: HT29 colon
NCI-H460 lung = tested on: NCI-H460 lung
DU-145 prostate = tested on: DU-145 prostate
CAKI-1 renal = tested on: CAKI-1 renal

Compound | GI50 (SNB-19 CNS) [µM] | TGI (SNB-19 CNS) [µM] | GI50 (RPMI-8226 leukemia) [µM] | TGI (RPMI-8226 leukemia) [µM] | GI50 (MALME-3M melanoma) [µM] | TGI (MALME-3M melanoma) [µM] | GI50 (SF-295 CNS) [µM] | TGI (SF-295 CNS) [µM] | GI50 (SK-MEL-28 melanoma) [µM] | TGI (SK-MEL-28 melanoma) [µM] | GI50 (NCI/ADR-RES ovarian) [µM] | TGI (NCI/ADR-RES ovarian) [µM] | GI50 (HT29 colon) [µM] | TGI (HT29 colon) [µM] | GI50 (NCI-H460 lung) [µM] | TGI (NCI-H460 lung) [µM] | GI50 (DU-145 prostate) [µM] | TGI (DU-145 prostate) [µM] | GI50 (CAKI-1 renal) [µM] | TGI (CAKI-1 renal) [µM]
COC(=O)Nc1nc2ccc(Oc3ccc(NC(=O)Nc4cccc(Br)c4)cc3)cc2[nH]1 | 8.31 | > 25 | 8.24 | > 25 | 1.41 | 9.14 | 1.18 | > 19.2 | 2.53 | 7.7 | > 6.8 | > 25 | 0.7 | 3.28 | 1.27 | > 13.5 | 3.15 | > 14.6 | 8.74 | > 25
CC/C=C\C/C=C\C[C@H](O)C/C=C1/C(=O)C=C[C@H]1C/C=C\CCC(=O)OC | 7.76 | > 8.25 | 1.59 | 5.01 | 2.2 | > 8.25 | > 8.25 | > 8.25 | 2.85 | > 8.25 | 3.74 | > 8.25 | 2.68 | 6.79 | > 8.25 | > 8.25 | 4.95 | > 8.25 | 6.01 | > 8.25
O=C(Cn1c(=O)c(-c2ccccc2)nc2ccccc21)c1cccnc1 | > 100 | > 100 | > 100 | > 100 | > 100 | > 100 | > 100 | > 100 | > 100 | > 100 | > 100 | > 100 | > 100 | > 100 | > 100 | > 100 | > 100 | > 100 | > 100 | > 100
Cn1c(=O)c(Oc2cccc(F)c2)cc2cnc(NC3CCOCC3)nc21 | > 25 | > 25 | > 25 | > 25 | > 25 | > 25 | > 25 | > 25 | > 25 | > 25 | > 25 | > 25 | > 25 | > 25 | > 25 | > 25 | > 25 | > 25 | > 22.4 | > 25
CCON=C1C(C)(C)C(C)(C)C(C)(C)C1(C)C |  | > 100 |  | > 100 |  | > 100 |  | > 100 |  | > 100 |  | > 100 |  | > 100 |  | > 100 |  | > 100 |  | > 100
CCCCCCCCCCCCCC[P+](CCCCCC)(CCCCCC)CCCCCC | 0.0688 | > 100 | 0.0158 | 0.0395 | 0.0271 | 0.0721 | 0.0783 | 0.432 | 0.101 | 1.44 | 0.73 | > 100 | 0.0527 | 3.26 | 0.315 | 1.22 | 0.0857 | 1.68 | 0.236 | 0.771
O=CN1N=C(c2ccc(Nc3ccnc4cc(Cl)ccc34)cc2)CC1c1ccccc1 (stereo not given) | 5.13 | > 100 | 2.55 | 12.3 | 4.21 | > 100 | 2.41 | 8.91 | 8.35 | 77.7 | 2.69 | 59.8 | 3.21 | 11.1 | 3.96 | > 100 | 3.8 | 27.8 | 3.82 | 32.2
